Earlier results on six molecules are cited in patent US6423339B1, “Liquisolid systems and methods of preparing same” (priority 1996, dated 2002).

For data set [1] the following is noted: diuretic.

Molecules are shown by their SMILES.

In the case of `CCOC(=O)C(C)(C)Oc1ccc(Cl)cc1` [Clofibrate], the “Solubility in alcohol (descriptive)” value is “soluble”, the “Solubility in chloroform (descriptive)” value is recorded as “soluble”, the “Solubility in other common organic solvents (descriptive)” value is reported as “soluble” and the “Solubility in water (descriptive)” value is listed as “insoluble (1 part solute into 10,000 or more parts of water)”. In addition, the “Stability (descriptive)” value (liquid drug) is given as “stable”.
As for `Cc1ccc(C)c(OCCCC(C)(C)C(=O)O)c1` [Gemflbrozil], the “Solubility in water (descriptive)” value is “practically water-insoluble (1 part solute into 10,000 or more parts of water)”.
Regarding `NS(=O)(=O)c1cc2c(cc1Cl)NCNS2(=O)=O` [Hydrochlorothiazide], the “Potency relative to chlorothiazide” value in data set [1] is on record as 10 times.
As to `CN1C(CCl)Nc2cc(Cl)c(S(N)(=O)=O)cc2S1(=O)=O` (centres unmarked) [Methyclothiazide], the “Solubility in acetone (descriptive)” value was “freely soluble” and the pka is listed as 9.4. Also, where the note is “per 1 gram of drug”, the “Volume of alcohol in which 1 gram of drug is soluble” value was 92.5 mL, the “Volume of chloroform in which 1 gram of drug is soluble” value was “more than 10,000 ml”, the “Volume of ether in which 1 gram of drug is soluble” value is 2,700 ml and the “Volume of water in which 1 gram of drug is soluble” value is listed as “more than 10,000 ml”.
Turning to `C[C@]12C=CC(=O)C=C1CC[C@@H]1[C@@H]2C(=O)C[C@@]2(C)[C@H]1CC[C@]2(O)C(=O)CO` [Prednisone], the “Solubility in water (descriptive)” value is “very slightly soluble”. Also, where the note is “per 1 gram of drug”, the “Volume of alcohol in which 1 gram of drug is soluble” value is 150 mL and the “Volume of chloroform in which 1 gram of drug is soluble” value was 200 mL.
Regarding `CC(=O)S[C@@H]1CC2=CC(=O)CC[C@]2(C)[C@H]2CC[C@@]3(C)[C@@H](CC[C@@]34CCC(=O)O4)[C@H]12` [Spironolactone], the “Solubility in alcohol (descriptive)” value was “soluble”, the “Solubility in chloroform (descriptive)” value is recorded as “freely soluble”, the “Solubility in fixed oils (descriptive)” value is listed as “slightly soluble” and the “Solubility in water (descriptive)” value is “practically insoluble”.
